Test results: patent US20150025234A1, “GANGLIOSIDE COMPOSITIONS” (priority 2013, published 2015)
“Also recorded” adds a separate entry of the source.

Experiments:
[1] = test system: Adult Human Bone Marrow Cells; assay: CLQ treatment of adult human bone marrow cells, CTB-Alexa488 staining (Example 2); type: cell-based; settings: 50 uM CLQ, 48 h, CTB-Alexa488, FIG. 2; listed as CLQ
[2] = test system: PC12 (rat adrenal medulla tumor) cells; settings: FEBS Lett. 580:6972-6976 (2006); cited from earlier work
[3] = test system: HT22 (mouse hippocampal) cells; settings: J. Neurochem. 119:839-847 (2011); cited from earlier work
[4] = test system: human bone marrow-derived cells (HBM); type: cell-based
[5] = test system: Parkinson's disease subjects; settings: cited from earlier work

In the case of `CCN(CC)CCCC(C)Nc1ccnc2cc(Cl)ccc12` (stereo not drawn) [Chloroquine, chloroquine], the “accumulation of GM1 vs control” value [1] is given as “significantly higher accumulation of GM1; also recorded: abundant and intense compared to control conditions”, the accumulation [2] is given as “induce accumulation” and the GM1 levels [3] is given as “only moderately increased GM1 levels”. For the same molecule, the “up-regulation of GM1 expression vs control” value [4] was “approximately 8 fold”.

For GM1, the “safety of long-term use” value ([5]; five-year study, J. Neurol. Sci. 292:45-51 (2010)) is given as “safe” and the effect on symptoms ([5]; short-term treatment, Neurology 50:1630-1636 (1998)) is given as “significant symptom reduction”.
